Laboratory results taken from ChEMBL document CHEMBL1151240, “A new dimension to the biosynthetic products isolated from the sponge Negombata magnifica” (2004).
The source made the active and inactive calls. No cut-off for these calls is given here.

Each compound was assayed on A10 (assay: Disruption of actin cytoskeleton in rat A10 cells upto 10 ug/ml by rhodamine-phalloidin assay).
Type: functional
With `C/C(=C/C(=O)O)CC/C=C\[C@@H](C)CC[C@@H]1CC=CC(=O)O1` the Activity was “inactive”. In the case of `C/C1=C/C(=O)O[C@@H]2C[C@@H](CC[C@H](C)/C=C\CC1)O[C@@](O)([C@@H]1CSC(=O)N1)C2` [LATRUNCULIN B], the Activity is reported as 0.5 µg/mL. `C/C1=C/C(=O)O[C@@H]2C[C@@H](CC[C@H](C)/C=C\C=C\CC1)O[C@@](O)([C@@H]1CSC(=O)N1)C2` [LATRUNCULIN A] gave an Activity of 0.5 µg/mL. In the case of `CO[C@]1([C@@H]2CSC(=O)N2)C[C@H]2C[C@@H](CC[C@H](C)/C=C\CC/C(C)=C\C(=O)O2)O1`, the Activity is reported as “inactive”. Work on `C/C1=C/C(=O)O[C@@H]2C[C@@H](CC[C@H](C)/C=C\CC1)O[C@@](O)([C@H]1CSC(=O)N1)C2` [16-EPI-LATRUNCULIN B] yielded an Activity of 5 µg/mL.
